In patent US11512090B2, “Muscarinic acetylcholine M1 receptor antagonists” (PIPELINE THERAPEUTICS, INC., priority 2018, dated 2022):
Read-outs that look alike come from different tables or passages of the source.

Key:
Type in all cases: cell-based
M3 = M3 (Homo sapiens, UniProt P20309); test: In vitro functional assay of muscarinic acetylcholine receptor activity, M3; settings: antagonist IC50 at M3; read-out: M3 IC50
M2 = target: T1, M2 (Homo sapiens, UniProt P08172); test: In vitro functional assay of muscarinic acetylcholine receptor activity, M2
T1 sequence (P08172 1-466): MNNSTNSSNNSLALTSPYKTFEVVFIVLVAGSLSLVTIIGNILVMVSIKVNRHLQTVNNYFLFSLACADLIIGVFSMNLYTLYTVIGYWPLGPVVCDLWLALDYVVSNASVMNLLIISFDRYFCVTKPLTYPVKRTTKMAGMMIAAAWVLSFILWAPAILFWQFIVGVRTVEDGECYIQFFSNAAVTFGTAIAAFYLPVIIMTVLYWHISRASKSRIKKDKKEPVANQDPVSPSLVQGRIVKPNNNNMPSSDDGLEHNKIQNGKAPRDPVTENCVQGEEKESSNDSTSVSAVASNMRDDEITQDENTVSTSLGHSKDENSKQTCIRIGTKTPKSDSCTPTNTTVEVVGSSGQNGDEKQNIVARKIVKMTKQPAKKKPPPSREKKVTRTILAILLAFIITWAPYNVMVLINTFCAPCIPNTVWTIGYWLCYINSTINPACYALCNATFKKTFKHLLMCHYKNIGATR

human M1 receptor = target: T2, human M1 receptor (Homo sapiens, UniProt P11229); test: In vitro functional assay of muscarinic acetylcholine receptor activity (aequorin calcium flux, antagonist mode vs EC80 acetylcholine), M1
T2 sequence (P11229 1-460): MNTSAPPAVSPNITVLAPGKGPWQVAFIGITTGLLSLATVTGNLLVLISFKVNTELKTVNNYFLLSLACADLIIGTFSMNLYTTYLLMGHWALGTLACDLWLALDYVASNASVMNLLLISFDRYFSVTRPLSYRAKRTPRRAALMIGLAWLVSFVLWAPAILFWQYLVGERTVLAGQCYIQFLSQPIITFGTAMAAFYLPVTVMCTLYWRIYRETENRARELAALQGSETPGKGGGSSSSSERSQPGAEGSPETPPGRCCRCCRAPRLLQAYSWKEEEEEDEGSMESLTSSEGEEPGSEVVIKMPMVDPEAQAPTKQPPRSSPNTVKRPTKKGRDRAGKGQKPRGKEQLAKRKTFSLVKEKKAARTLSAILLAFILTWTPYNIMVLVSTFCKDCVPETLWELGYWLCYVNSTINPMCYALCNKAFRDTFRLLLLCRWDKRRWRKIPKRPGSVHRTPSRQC
Summary of the method: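 Antagonism at M1 was measured as a concentration-dependent reduction of the EC80 acetylcholine-evoked aequorin luminescence, from which IC50 was derived. Human M1 CHO-K1 aequorin cells were first loaded with 5 uM coelenterazine h for 4 h and exposed to compound for 30 min at room temperature.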

[1] = antagonist IC50 at M2, read-out: M2 IC50
[2] = CHO-K1 cells stably expressing human M1 receptor with Aequorin, decrease in EC80 acetylcholine response, read-out: M1 IC50

Chain of M3 (P20309 whole entry): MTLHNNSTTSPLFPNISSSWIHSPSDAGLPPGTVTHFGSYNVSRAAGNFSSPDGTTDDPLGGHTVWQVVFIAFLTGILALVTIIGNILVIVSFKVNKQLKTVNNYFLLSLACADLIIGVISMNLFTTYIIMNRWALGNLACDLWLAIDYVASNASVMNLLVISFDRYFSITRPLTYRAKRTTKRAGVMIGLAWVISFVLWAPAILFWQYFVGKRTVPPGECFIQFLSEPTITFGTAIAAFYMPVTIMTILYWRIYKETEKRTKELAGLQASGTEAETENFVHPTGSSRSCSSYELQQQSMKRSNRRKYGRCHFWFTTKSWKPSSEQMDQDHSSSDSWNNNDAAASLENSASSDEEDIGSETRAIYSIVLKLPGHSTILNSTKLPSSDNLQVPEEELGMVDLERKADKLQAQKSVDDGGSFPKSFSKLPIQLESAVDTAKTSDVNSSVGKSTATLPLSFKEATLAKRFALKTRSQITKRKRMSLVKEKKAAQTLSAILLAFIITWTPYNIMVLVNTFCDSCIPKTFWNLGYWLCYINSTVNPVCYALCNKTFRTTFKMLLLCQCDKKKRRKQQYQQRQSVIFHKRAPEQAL

N#Cc1ccc(N2CC3CCC2CN3C(=O)CCNCc2cccc3ncsc23)nc1 (stereo not drawn) [Example 162, 6-[5-(3-{[(1,3-benzothiazol-7-yl)methyl]amino}propanoyl)-2,5-diazabicyclo[2.2.2]octan-2-yl]pyridine-3-carbonitrile] was tested, and the IC50 (M3) was 1 to 10 µM, the IC50 (M2; [1]) was 1 to 10 µM and the IC50 (human M1 receptor; [2]) was 100 to 1000 nM.
O=C(CCNCc1cccn2nccc12)N1CC2CCC(C1)N2c1ccc(Cl)cn1 [Example 163, 1-[8-(5-chloropyridin-2-yl)-3,8-diazabicyclo[3.2.1]octan-3-yl]-3-[({pyrazolo[1,5-a]pyridin-4-yl}methyl)amino]propan-1-one] was tested, and the IC50 (M3) was over 10 µM, the IC50 (M2; [1]) was 1 to 10 µM and the IC50 (human M1 receptor) was 100 to 1000 nM.
In the case of N#Cc1ccc(N2C3CCC2CN(C(=O)CCN(Cc2cccc4ncnn24)C2CC2)C3)nc1 [Example 164, 6-(3-{3-[cyclopropyl({[1,2,4]triazolo[1,5-a]pyridin-5-yl}methyl)amino]propanoyl}-3,8-diazabicyclo[3.2.1]octan-8-yl)pyridine-3-carbonitrile], the IC50 (M3) is reported as 1 to 10 µM, the IC50 (M2; [1]) is reported as 1 to 10 µM and the IC50 (human M1 receptor) is reported as under 100 nM.
Work on N#Cc1ccc(N2C3CCC2CN(C(=O)CCNCc2cccn4nccc24)C3)nc1 [Example 165, 6-(3-{3-[({pyrazolo[1,5-a]pyridin-4-yl}methyl)amino]propanoyl}-3,8-diazabicyclo[3.2.1]octan-8-yl)pyridine-3-carbonitrile] yielded an IC50 (M3) of 1 to 10 µM, an IC50 (M2; [1]) of 1 to 10 µM and an IC50 (human M1 receptor) of 100 to 1000 nM.
Compound N#Cc1ccc(N2C3CCC2CN(C(=O)CNCCc2cccc4ncsc24)C3)nc1 [Example 166, 6-[3-(2-{[2-(1,3-benzothiazol-7-yl)ethyl]amino}acetyl)-3,8-diazabicyclo[3.2.1]octan-8-yl]pyridine-3-carbonitrile] has an IC50 (M3) of 1 to 10 µM, an IC50 (M2; [1]) of 1 to 10 µM and an IC50 (human M1 receptor) of 100 to 1000 nM.
Compound O=C(CCNCc1c(F)ccc2nccn12)N1CC2CCC(C1)N2c1ccc(Cl)cn1 [Example 167, 1-[8-(5-chloropyridin-2-yl)-3,8-diazabicyclo[3.2.1]octan-3-yl]-3-[({6-fluoroimidazo[1,2-a]pyridin-5-yl}methyl)amino]propan-1-one] has an IC50 (M3) of over 10 µM, an IC50 (M2; [1]) of 1 to 10 µM and an IC50 (human M1 receptor) of under 100 nM.
Cc1nc2cccc(CNCCC(=O)N3CC4CCC(C3)N4c3ccc(C#N)cn3)n2n1 [Example 168, 6-(3-{3-[({2-methyl-[1,2,4]triazolo[1,5-a]pyridin-5-yl}methyl)amino]propanoyl}-3,8-diazabicyclo[3.2.1]octan-8-yl)pyridine-3-carbonitrile] showed an IC50 (M3) of over 10 µM, an IC50 (M2; [1]) of 1 to 10 µM and an IC50 (human M1 receptor) of 100 to 1000 nM.
CN(CCC(=O)N1CC2CCC(C1)N2c1ccc(C#N)cn1)Cc1cccc2ncsc12 [Example 169, 6-[3-(3-{[(1,3-benzothiazol-7-yl)methyl](methyl)amino}propanoyl)-3,8-diazabicyclo[3.2.1]octan-8-yl]pyridine-3-carbonitrile] gave an IC50 (M3) of 1 to 10 µM, an IC50 (M2) of 0.1 to 1 µM and an IC50 (human M1 receptor) of 100 to 1000 nM.
With CN(CCC(=O)N1CC2CCC(C1)N2c1ccc(C#N)cn1)Cc1cccc2ncnn12 [Example 170, 6-(3-{3-[methyl({[1,2,4]triazolo[1,5-a]pyridin-5-yl}methyl)amino]propanoyl}-3,8-diazabicyclo[3.2.1]octan-8-yl)pyridine-3-carbonitrile] the IC50 (M3) was 1 to 10 µM, the IC50 (M2; [1]) was 1 to 10 µM and the IC50 (human M1 receptor) was 100 to 1000 nM.
N#Cc1ccc(N2C3CCC2CN(C(=O)CCNCc2cccc4ncnn24)C3)cc1 [Example 171, 4-(3-{3-[({[1,2,4]triazolo[1,5-a]pyridin-5-yl}methyl)amino]propanoyl}-3,8-diazabicyclo[3.2.1]octan-8-yl)benzonitrile] showed an IC50 (M3) of over 10 µM, an IC50 (M2; [1]) of over 10 µM and an IC50 (human M1 receptor) of 100 to 1000 nM.
Work on O=C(CCNCc1c(F)ccc2nccn12)N1CC2CCC(C1)N2c1ccc(C2CC2)cn1 [Example 172, 1-[8-(5-cyclopropylpyridin-2-yl)-3,8-diazabicyclo[3.2.1]octan-3-yl]-3-[({6-fluoroimidazo[1,2-a]pyridin-5-yl}methyl)amino]propan-1-one] yielded an IC50 (M3) of over 10 µM, an IC50 (M2; [1]) of 1 to 10 µM and an IC50 (human M1 receptor; [2]) of 1000 to 10000 nM.
Compound Cc1ccc2ncnn2c1CNCCC(=O)N1CC2CCC(C1)N2c1ccc(C#N)cn1 [Example 173, 6-(3-{3-[({6-methyl-[1,2,4]triazolo[1,5-a]pyridin-5-yl}methyl)amino]propanoyl}-3,8-diazabicyclo[3.2.1]octan-8-yl)pyridine-3-carbonitrile] has an IC50 (M3) of over 10 µM, an IC50 (M2; [1]) of over 10 µM and an IC50 (human M1 receptor) of 100 to 1000 nM.
In the case of N#Cc1ccc(N2C3CCC2CN(C(=O)CCN(Cc2cccc4ncnn24)C2COC2)C3)nc1 [Example 174, 6-(3-{3-[(oxetan-3-yl)({[1,2,4]triazolo[1,5-a]pyridin-5-yl}methyl)amino]propanoyl}-3,8-diazabicyclo[3.2.1]octan-8-yl)pyridine-3-carbonitrile], the IC50 (M3) is reported as over 10 µM, the IC50 (M2; [1]) is reported as over 10 µM and the IC50 (human M1 receptor) is reported as 100 to 1000 nM.
For N#Cc1ccc(-c2ccc(N3C4CCC3CN(C(=O)CCNCc3cccc5ncnn35)C4)cc2)nc1 [Example 175, 6-[4-(3-{3-[({[1,2,4]triazolo[1,5-a]pyridin-5-yl}methyl)amino]propanoyl}-3,8-diazabicyclo[3.2.1]octan-8-yl)phenyl]pyridine-3-carbonitrile], the IC50 (M3) was over 10 µM, the IC50 (M2; [1]) was 1 to 10 µM and the IC50 (human M1 receptor) was 100 to 1000 nM.
For Cc1ccc(COCCC(=O)N2CC3CCC(C2)N3c2ccc(C#N)cn2)c2cccnc12 [Example 176, 6-(3-{3-[(8-methylquinolin-5-yl)methoxy]propanoyl}-3,8-diazabicyclo[3.2.1]octan-8-yl)pyridine-3-carbonitrile], the IC50 (M3) was over 10 µM, the IC50 (M2; [1]) was 1 to 10 µM and the IC50 (human M1 receptor) was 100 to 1000 nM.
For Cc1ccc2ncccc2c1COCCC(=O)N1CC2CCC(C1)N2c1ccc(C#N)cn1 [Example 177, 6-(3-{3-[(6-methylquinolin-5-yl)methoxy]propanoyl}-3,8-diazabicyclo[3.2.1]octan-8-yl)pyridine-3-carbonitrile], the IC50 (M3) was 1 to 10 µM, the IC50 (M2; [1]) was 1 to 10 µM and the IC50 (human M1 receptor) was under 100 nM.
With COc1cnc2cccc(CNCCC(=O)N3CC4CCC(C3)N4c3ccc(Cl)cn3)c2c1 [Example 178, 1-[8-(5-chloropyridin-2-yl)-3,8-diazabicyclo[3.2.1]octan-3-yl]-3-{[(3-methoxyquinolin-5-yl)methyl]amino}propan-1-one] the IC50 (M3) was over 10 µM, the IC50 (M2; [1]) was over 10 µM and the IC50 (human M1 receptor) was 100 to 1000 nM.
Compound O=C(COCCc1cccn2ncnc12)N1CC2CCC(C1)N2c1ccc(Cl)cn1 [Example 179, 1-[8-(5-chloropyridin-2-yl)-3,8-diazabicyclo[3.2.1]octan-3-yl]-2-(2-{[1,2,4]triazolo[1,5-a]pyridin-8-yl}ethoxy)ethan-1-one] has an IC50 (M3) of over 10 µM, an IC50 (M2; [1]) of over 10 µM and an IC50 (human M1 receptor) of under 100 nM.
Compound N#Cc1ccc(N2C3CCC2CN(C(=O)COCCc2cccn4ncnc24)C3)nc1 [Example 180, 6-{3-[2-(2-{[1,2,4]triazolo[1,5-a]pyridin-8-yl}ethoxy)acetyl]-3,8-diazabicyclo[3.2.1]octan-8-yl}pyridine-3-carbonitrile] has an IC50 (M3) of over 10 µM, an IC50 (M2; [1]) of 1 to 10 µM and an IC50 (human M1 receptor) of under 100 nM.
With COc1cnc2cccc(CCOCC(=O)N3CC4CCC(C3)N4c3ccc(C#N)cn3)c2c1 [Example 181, 6-(3-{2-[2-(3-methoxyquinolin-5-yl)ethoxy]acetyl}-3,8-diazabicyclo[3.2.1]octan-8-yl)pyridine-3-carbonitrile] the IC50 (M3) was 1 to 10 µM, the IC50 (M2; [1]) was 1 to 10 µM and the IC50 (human M1 receptor) was under 100 nM.
In the case of N#Cc1ccc(N2C3CCC2CN(C(=O)COCc2cccc4ncnn24)C3)nc1 [Example 182, 6-{3-[2-({[1,2,4]triazolo[1,5-a]pyridin-5-yl}methoxy)acetyl]-3,8-diazabicyclo[3.2.1]octan-8-yl}pyridine-3-carbonitrile], the IC50 (M3) is reported as over 10 µM, the IC50 (M2; [1]) is reported as over 10 µM and the IC50 (human M1 receptor; [2]) is reported as 1000 to 10000 nM.
N#Cc1ccc(N2C3CCC2CN(C(=O)COCCc2cccc4ncnn24)C3)nc1 [Example 183, 6-{3-[2-(2-{[1,2,4]triazolo[1,5-a]pyridin-5-yl}ethoxy)acetyl]-3,8-diazabicyclo[3.2.1]octan-8-yl}pyridine-3-carbonitrile] showed an IC50 (M3) of 1 to 10 µM, an IC50 (M2; [1]) of over 10 µM and an IC50 (human M1 receptor) of under 100 nM.
N#Cc1ccc(N2C3CCC2CN(C(=O)COCc2cccn4ncnc24)C3)nc1 [Example 184, 6-{3-[2-({[1,2,4]triazolo[1,5-a]pyridin-8-yl}methoxy)acetyl]-3,8-diazabicyclo[3.2.1]octan-8-yl}pyridine-3-carbonitrile] gave an IC50 (M3) of over 10 µM, an IC50 (M2; [1]) of over 10 µM and an IC50 (human M1 receptor) of under 100 nM.
